Measurements reported in ChEMBL document CHEMBL4130413, “1-Aryl-1H- and 2-aryl-2H-1,2,3-triazole derivatives blockade P2X7 receptor in vitro and inflammatory response in vivo” (Eur J Med Chem, 2017).
Calls of active or inactive are those of the source. No cut-off for these calls is given here.

Columns and labels:
[1] = n-Octanol/PBS distribution coefficient, log D of the compound at pH 7.4 at 25 mM after 2 hrs; type: physicochemical
Mus musculus [2] = experiment: Anti-inflammatory activity in po dosed Swiss Webster mouse assessed as inhibition of ATP-induced paw edema pretreated for 60 mins followed by ATP administration and measured after 30 mins; type: functional
[3] = Kinetic solubility in pH 7.4 phosphate buffer at 1 to 250 uM after 2 hrs; type: physicochemical; conditions: read-out: Kinetic_solubility
P2X purinoceptor 7 [4] = molecular target: T1, P2X purinoceptor 7 (Mus musculus, UniProt Q9Z1M0); experiment: (§1) Antagonist activity at P2X7 receptor in Swiss mouse peritoneal macrophages assessed as inhibition of ATP-induced propidium iodide uptake after 25 mins by flow cytometric analysis
T1 sequence (Q9Z1M0 whole entry): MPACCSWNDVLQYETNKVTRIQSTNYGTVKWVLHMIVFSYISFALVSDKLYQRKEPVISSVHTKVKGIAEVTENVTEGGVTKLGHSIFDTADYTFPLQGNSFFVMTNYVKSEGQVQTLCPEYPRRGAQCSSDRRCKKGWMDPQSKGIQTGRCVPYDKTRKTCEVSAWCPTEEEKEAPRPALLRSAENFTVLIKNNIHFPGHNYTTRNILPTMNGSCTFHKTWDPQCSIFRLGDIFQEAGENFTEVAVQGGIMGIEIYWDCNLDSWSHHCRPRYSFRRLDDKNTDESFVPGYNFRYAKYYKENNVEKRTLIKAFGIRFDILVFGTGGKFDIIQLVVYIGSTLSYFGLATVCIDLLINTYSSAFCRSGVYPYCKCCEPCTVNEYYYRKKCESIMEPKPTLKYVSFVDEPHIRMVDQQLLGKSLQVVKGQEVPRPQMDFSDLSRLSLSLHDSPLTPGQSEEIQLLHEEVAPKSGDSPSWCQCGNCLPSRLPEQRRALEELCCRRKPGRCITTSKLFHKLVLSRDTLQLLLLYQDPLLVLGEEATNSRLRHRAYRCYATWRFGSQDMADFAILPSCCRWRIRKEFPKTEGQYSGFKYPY

[5] = molecular target: T2, P2X purinoceptor 7 (Mus musculus) (UniProt Q9Z1M0); experiment: as §1
T2 sequence (whole entry): T1 sequence (Q9Z1M0 whole entry)

P2X purinoceptor 7 [6] = molecular target: T1, P2X purinoceptor 7; experiment: Antagonist activity at P2X7 receptor in LPS/IFNc-differentiated Swiss mouse peritoneal macrophages assessed as inhibition of ATP-induced IL-1beta release preincubated for 30 mins followed by LPS stimulation for 4 hrs using cells treated with ATP for 30 mins by ELISA
[7] = Kinetic solubility in pH 10 sodium hydroxide buffer at 1 to 250 uM after 2 hrs; type: physicochemical; conditions: read-out: Kinetic_solubility
Mus musculus [8] = experiment: Anti-inflammatory activity in Swiss mouse assessed as inhibition of LPS-induced pleural accumulation in mononuclear cells at 1 to 100 ng/kg, ip pretreated for 1 hr followed by LPS stimulation and measured after 24 hrs by May-Grunwald-Giemsa staining-based Neubauer chamber based optical microscopy; type: functional, organism-based
[9] = Kinetic solubility in pH 4 citrate buffer at 1 to 250 uM after 2 hrs; type: physicochemical; conditions: read-out: Kinetic_solubility
Mus musculus [10] = experiment: Anti-inflammatory activity in Swiss mouse assessed as inhibition of LPS-induced pleural accumulation in neutrophils at 1 to 100 ng/kg, ip pretreated for 1 hr followed by LPS stimulation and measured after 24 hrs by May-Grunwald-Giemsa staining-based Neubauer chamber based optical microscopy; type: functional, organism-based
[11] = Cytotoxicity against Swiss mouse peritoneal macrophages after 24 hrs by LDH-release assay; type: cell-based, Peritoneal macrophage
Mus musculus [12] = experiment: Anti-inflammatory activity in ip dosed Swiss Webster mouse assessed as inhibition of ATP-induced paw edema pretreated for 60 mins followed by ATP administration and measured after 30 mins; type: functional
[13] = molecular target: T3, P2X purinoceptor 7 (Homo sapiens) (UniProt Q99572); experiment: Antagonist activity at human P2X7 receptor expressed in HEK293 cells assessed as inhibition of ATP-induced ethidium iodide uptake at 10 uM preincubated for 10 mins followed by ATP addition measured after 20 mins by FLIPR assay relative to 1 mM ATP; type: cell-based
T3 sequence (whole entry): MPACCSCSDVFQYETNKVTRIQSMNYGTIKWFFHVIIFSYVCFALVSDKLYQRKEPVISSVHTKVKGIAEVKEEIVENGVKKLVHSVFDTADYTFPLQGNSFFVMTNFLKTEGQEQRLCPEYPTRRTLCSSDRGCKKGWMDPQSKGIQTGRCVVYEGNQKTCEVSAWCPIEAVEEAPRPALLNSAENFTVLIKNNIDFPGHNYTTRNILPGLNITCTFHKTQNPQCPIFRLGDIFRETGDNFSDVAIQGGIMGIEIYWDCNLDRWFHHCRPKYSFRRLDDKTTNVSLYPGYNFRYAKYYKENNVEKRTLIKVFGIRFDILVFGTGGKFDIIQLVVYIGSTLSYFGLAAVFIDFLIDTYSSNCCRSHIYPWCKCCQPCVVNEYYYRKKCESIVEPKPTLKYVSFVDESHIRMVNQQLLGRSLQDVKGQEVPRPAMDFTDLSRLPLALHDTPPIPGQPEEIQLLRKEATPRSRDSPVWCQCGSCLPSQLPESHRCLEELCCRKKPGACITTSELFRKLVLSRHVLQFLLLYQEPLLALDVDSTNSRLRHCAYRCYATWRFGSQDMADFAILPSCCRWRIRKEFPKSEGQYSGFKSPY

P2X purinoceptor 7 [14] = molecular target: T1, P2X purinoceptor 7; experiment: Antagonist activity at P2X7 receptor in Swiss mouse peritoneal macrophages assessed as inhibition of ATP-induced current at holding potential of -60 mV preincubated for 5 mins followed by ATP addition measured after 5 mins by Whole cell patch-clamp analysis
[15] = Kinetic solubility in pH 2 hydrochloride buffer at 1 to 250 uM after 2 hrs; type: physicochemical; conditions: read-out: Kinetic_solubility
Mus musculus [16] = experiment: Anti-inflammatory activity in Swiss mouse assessed as inhibition of LPS-induced pleural accumulation in total leucocytes at 100 mg/kg, ip pretreated for 1 hr followed by LPS stimulation and measured after 24 hrs by May-Grunwald-Giemsa staining-based Neubauer chamber based optical microscopy; type: functional, organism-based
Mus musculus [17] = experiment: Anti-inflammatory activity in Swiss mouse assessed as inhibition of LPS-induced nitric oxide production in pleural washes at 100 ng/kg, ip pretreated for 1 hr followed by LPS stimulation measured after 24 hrs by Lowry/Griess analysis; type: functional, organism-based
Mus musculus [18] = experiment: Anti-inflammatory activity in Swiss mouse assessed as inhibition of LPS-induced protein extravasation in thoracic cavity at 100 mg/kg, ip pretreated for 1 hr followed by LPS stimulation and measured after 24 hrs; type: functional, organism-based
Mus musculus [19] = experiment: Anti-inflammatory activity in Swiss mouse assessed as inhibition of LPS-induced pleural accumulation in neutrophils cells at 100 mg/kg, ip pretreated for 1 hr followed by LPS stimulation and measured after 24 hrs by May-Grunwald-Giemsa staining-based Neubauer chamber based optical microscopy; type: functional, organism-based

| Structure (SMILES) | logD at 2 h, 25000 µM [1] | ID50 (Mus musculus [2]) | solubility kinetic at 2 h [3] | IC50 (P2X purinoceptor 7 [4]) | inhibition [5] | IC50 (P2X purinoceptor 7 [6]) | solubility kinetic at 2 h [7] | Activity (Mus musculus [8]) | solubility kinetic at 2 h [9] | Activity (Mus musculus [10]) | CC50 at 24 h [11] | ID50 (Mus musculus [12]) | inhibition [13] | IC50 (P2X purinoceptor 7 [14]) | solubility kinetic at 2 h [15] | Activity (Mus musculus [16]) | Activity (Mus musculus [17]) | Activity (Mus musculus [18]) | Activity (Mus musculus [19]) |
| --- | --- | --- | --- | --- | --- | --- | --- | --- | --- | --- | --- | --- | --- | --- | --- | --- | --- | --- | --- |
| CCOCc1cn(-c2ccc(Cl)cc2)nn1 | -1.96 | 0.06859 µg/kg | < 250 µM | 83 nM | Dose-dependent effect | 91 nM | < 250 µM | Active | < 250 µM | inactive | 4030 nM | 0.07984 µg/kg | 96.9% | 69 nM | < 250 µM |  |  |  |  |
| O=C(O)Cc1ccccc1Nc1c(Cl)cccc1Cl [DICLOFENAC] |  |  |  |  |  |  |  |  |  |  |  |  |  |  |  | Active | inactive | inactive | inactive |
